# Laboratory results published in patent US5294553A, “Method for the gravimetric determination of oil and grease” (priority 1993, dated 1994).
# Where two headings read alike, the source gives them in different places.
# Experiments:
# [1] = Amount of No. 6 Fuel dissolved; format: physicochemical; settings: for Amount of No. 6 Fuel Dissolved: Table 1B
# [2] = Table 1A, cited from earlier work
# [3] = cited from earlier work
# [4] = cited from earlier work; remark: listed apart in the source
# Rat = settings: inhalation, Table 1B; cited from earlier work
# [5] = cited from earlier work; remark: listed apart in the source
SMILES,Sol. in Water ([2]; in words),Boil Pt. ([3]; Table 1A) [°C],"ε, Dielectric Constant ([4]; Table 1A)",also measured
"FC(F)(Cl)C(F)(Cl)Cl [FREON ®, 1,1,2-trichloro-1,2,2-trifluoroethane]",insol.,50,,Amount of No. 6 Fuel Dissolved [1]: 41.01%; Boil Pt. ([3]; Table 1B): 50 °C
C=COC=C [Vinyl ether],sl. sol.,28,3.94,
CCC(C)=O [Butanone],sol.,,18.5,
"COC(C)(C)C [Methyl t-Butyl ether, methyl tertiary-butyl ether]",sl. sol.,55,ca. 4.00,"Amount of No. 6 Fuel Dissolved [1]: 99.74%; ε, Dielectric Constant ([4]; -20° C., Table 1B): 4.0; Boil Pt. ([3]; Table 1B): 55 °C"
c1ccsc1 [Thiophene],sl. sol.,83,2.76,
CCOCC [Ethyl ether],,34.6,4.34,Sol. in Water [2]: 7.5 g/100 g
ClC(Cl)(Cl)Cl [Carbon tetrachloride],Vsl. sol.,76,2.24,"LC50(ihl) -Rat (Rat): 4,000 ppm; ε, Dielectric Constant ([4]; -20° C., Table 1B): 2.238; Boil Pt. ([3]; Table 1B): 76 °C"
C1=CCCC1 [Cyclopentene],,< 49,2.20,
S=C=S [Carbon disulfide],,46,2.64,
ClCCl [Methyl chloride],,,,Boil Pt. ([3]; Table 1B): 40 °C
"CCCCCC [Hexane, n-hexane]",insol.,,1.89,"solubility of No. 6 oil, in words ([1]; compared with hexane/methyl tertiary-butyl ether (80:20 v/v)): much less soluble in hexane; adverse effects on absorption through the skin ([5]; nervous system): can be absorbed through the skin causing adverse effects to the nervous system, including a lack of feeling in the extremities and dizziness"
C=CCCCC [Hexene-1],ca. sl. sol.,63,ca. 2.05,
C=CCCCCC [Heptene-1],ca. sl. sol.,93,ca. 2.05,
C1CCCC1 [Cyclopentane],sl. sol.,49,1.965,
C1=CCCCC1 [Cyclohexene],sl. sol.,82,2.20,
ClC(Cl)Cl [Chloroform],Vsl. sol.,60,4.81,"LC50(ihl) -Rat (Rat): 8,000 ppm; ε, Dielectric Constant ([4]; -20° C., Table 1B): 4.80; Boil Pt. ([3]; Table 1B): 60 °C"
c1ccccc1 [Benzene],sl. sol.,,2.27,
c1ccoc1 [Furan],sl. sol.,32,,
CCSCC [Ethyl sulfide],V. sl. sol.,91,5.72,
CO [methyl alcohol],,,,dielectric constant ε ([4]; alcohols): 31
C=CC(=O)OCC [Ethyl acrylate],,99,,
C=CCCC [Pentene-1],,37,2.10,Sol. in Water [2]: 0.04%
ClCCl [Methylene Chloride],,40.2,9.08,
CSC [Methyl sulfide],sl. sol.,37,6.2,"ε, Dielectric Constant ([4]; -20° C., Table 1B): 6.2; Boil Pt. ([3]; Table 1B): 37 °C"
C=COC(C)=O [Vinyl acetate],sl. sol.,72,,
CCSC [Ethyl methyl sulfide],V. sl. sol.,66,~5.72,
CC1CCCC1 [Methyl cyclopentane],V. sl. sol.,72,,
CCOC(C)=O [Ethyl acetate],sl. sol.,77,6.02,"LC50(ihl) -Rat (Rat): 1,600 ppm; Amount of No. 6 Fuel Dissolved [1]: 31.71%; Hazards, Comments ([5]; Table 1A, code numbers): 44; ε, Dielectric Constant ([4]; -20° C., Table 1B): 6.02; Boil Pt. ([3]; Table 1B): 77 °C"
